From patent US10738044B2, “Therapeutic compound and use in therapy” (PROXIMAGEN, LLC, priority 2015, dated 2020) come the findings set out here.

Test [1] has as its system C57BL/10ScSn-Dmdx/J male mice. The test is described as follows: Murine model of Duchenne's muscular dystrophy (mdx mice). Format: in vivo, mouse. The following applies: 100 mg/kg po bid for 4 weeks; FIG. 11. As to the method: C57BL/10ScSn-Dmdx/J male mice were dosed from 27 days for 4 weeks with either vehicle (n=5), prednisolone (1 mg/kg ip qd, n=8) or Example 1 (100 mg/kg po bid, n=8). At 8 weeks of age, blood was collected by retro-orbital bleeding, and mice were humanely euthanized by CO2 asphyxiation. One triceps surae was collected fresh and processed for immune cell sorting, one tibialis anterior was preserved in RNALater for RNA extraction, one whole hind limb and the diaphragm were fixed in 2% paraformaldehyde overnight at 4° C. for paraffin embedding and histology stains. Serum was prepared immediately after collection and frozen at −20° C. At the end of the study, all serum samples were dosed for Creatine Kinase on a Beckman Coulter AU Clinical Chemistry analyzer following manufacturer instructions (a modification of the International Federation of Clinical Chemistry method).
For immune cell sorting, muscle samples were enzymatically and mechanically dissociated following manufacturer instructions (Skeletal Muscle Dissociation KitCatalog no. 130-098-305, Miltenyi Biotec). Cells were stained with the following antibodies:
Stained cells were analyzed on a BD LSR II cytometer and counts of different populations were expressed in percentage of the number of live cells counted. Total RNAs were extracted with a modification of the Trizol method, reverse transcribed, and mRNAs of TGFα, and the following inflammation markers were quantified by the SYBR green method with GAPDH as a normalizer: […]

Test [2] has as its system male DBA/1J mice, collagen-induced arthritis. Kind of test: Established mouse collagen-induced arthritis model. Format: in vivo. The method, then: Example 1 was assessed in an established mouse collagen-induced arthritis model. Disease was induced in male DBA/1J mice by means of a subcutaneous injection of a collagen (bovine)/CFA emulsion at the base of the tail. Each paw was scored daily and the sum of all four scores was recorded as the Arthritic Index (AI). The maximum possible AI was 16 (0=no visible effects of arthritis, 1=edema and/or erythema of one digit, 2=edema and/or erythema of 2 joints, 3=edema and/or erythema of more than 2 joints, 4=severe arthritis of the entire paw and digits including limb deformation and ankylosis of the joint). As animals developed disease, they were sorted into treatment groups with AI in the range of 2-6 and an average group AI of 3.6 prior to initiation of the dosing regimen. Example 1 (10, 50 and 100 mg/kg) was administered orally twice daily from day 30 post-inoculation.
Histological evaluation of the rear right hind limbs was also carried out. The joints were scored for severity of arthritis (inflammation, pannus, cartilage damage and bone damage) by a board certified pathologist, who was blind to the assigned treatment.

In test [3] the test system is female SJL mice, experimental allergic encephalomyelitis. The test is described as follows: Mouse PLP139-151 relapsing-remitting EAE model. Format: in vivo. The following applies: 3, 10, 30 or 100 mg/kg orally twice daily, therapeutic; FIG. 7. The method, then: Example 1 was assessed in a PLP139-151 remitting and relapsing model of experimental allergic encephalomyelitis (EAE) in female SJL mice as an indicator of a potential treatment for multiple sclerosis in humans.
Adjuvant was prepared by homogenizing 100 mg Mycobacterium tuberculosis H37 RA in 50 mL Incomplete Freund's Adjuvant to prepare a 2 mg/mL suspension which was stored at 4-8° C. 50 ug pertussis toxin from Bordetella pertussis was reconstituted in 50 mL sterile PBS to prepare a 1 ug/mL solution which was kept in an ice bath. 10.35 mg PLP139-151 was dissolved in 10.35 mL sterile PBS to prepare a 1 mg/mL solution. 10 mL of PLP139-151 was emulsified with 10 mL adjuvant in ten batches in an ice bath to prepare a 0.5 mg/mL PLP139-151/1 mg/mL M. tuberculosis H37 RA emulsion which was kept in an ice bath. […] On day 0, 70 mice were injected subcutaneously in both flanks with 0.1 mL of the PLP139-151/CFA emulsion. Two hours later the mice were injected by intraperitoneal route with 0.2 mL pertussis toxin (200 ng/mouse). The mice were returned to routine maintenance with no adverse effects. On day 2, the mice were injected IP with 0.2 mL of pertussis toxin (200 ng/mouse). From day 7 the mice were weighed and scored for signs of disease as follows: 0=no obvious signs of motor dysfunction compared to non-immunized control; 1=limp or floppy tail; 2=limp tail and weakness in hind legs; 3=limp tail and complete paralysis of legs or limp tail with paralysis of one front and one hind leg; 4=limp tail, complete hind leg and partial front leg paralysis; 5=complete hind and complete front leg paralysis. On days 10-12, the mice were sorted into treatment groups based upon average score and twice daily oral administration of Example 1 (3, 10, 30 or 100 mg/kg), dexamethasone or vehicle (n=10 per group) was initiated. The disease score was monitored for 20 days.

Test [4] relates to serum TNFα in female Swiss Webster mice. The test is described as follows: Murine model of LPS-induced cytokine release. Format: in vivo, mouse. The following applies: oral administration one hour prior to LPS challenge; serum one hour after LPS; FIG. 9. The method, then:
Example 1 was assessed in an LPS-induced cytokine release assay. One hour after administration of Example 1, female Swiss Webster mice (n=5 per group) were injected intraperitoneally with 2 mL/kg LPS (1.5 mg/mL). One hour after LPS injection the mice were anesthetized and exsanguinated into pre-chilled serum separator microtainer tubes. The blood was processed to serum which was stored at −80° C. The frozen serum aliquots were thawed to room temperature, diluted 1:5 with sterile saline and assayed by ELISA for TNFα.

The test system of test [5] is DSS-treated mice, established colitis. Kind of test: Chronic DSS-induced colitis mouse model. Format: in vivo. As to the method:
Example 1 was assessed in the treatment of established disease in the chronic Dextran Sulphate (DSS)-induced colitis model. DSS was administered in the drinking water as a 3% solution for five days. DSS-treated mice were orally administered vehicle, 6-Thioguanine (0.5 mg/kg) or Example 1 (10 mg/kg, 30 mg/kg or 100 mg/kg) b.i.d. from Days 6 to 19. A no treatment control group of 5 mice was also used. Body weights were measured daily for 19 days and animals were assessed visually for the presence of diarrhea and/or bloody stool. All animals underwent video endoscopy on Days 5 (baseline), 12 and 19 to assess the extent of colitis and whether any beneficial treatment effects could be observed. All animals were euthanized on Day 19 to obtain colon tissues for pathology examination.

The subject of test [6] is female C57BL/6 mice, CCl4-induced liver fibrosis. The test is described as follows: Carbon tetrachloride induced liver fibrosis model. Format: in vivo, mouse. The conditions noted are these: 100 mg/kg bid orally for 28 days; FIG. 8. The method, then:
Example 1 was assessed in a carbon tetrachloride (CCl4)-induced Liver Fibrosis Model. 7 week old female C57BL/6 mice were divided into four groups (n=5/group for one Control group to act as non-disease comparator and n=10/group for three CCl4-treated groups based on their body weight the day before the start of the treatment. Thirty mice were intraperitoneally administered 5% CCl4 in mineral oil at a volume of 100 uL twice a week (days 0, 4, 11, 14, 18, 21 and 25). Five mice intraperitoneally administered mineral oil instead of the 5% CCl4, served as the non-diseased control group. Example 1 (100 mg/kg bid), Valsartan (20 mg/kg qd, positive control) and Vehicle were administered orally (dose volume=10 mL/kg) for 28 days (days −1 to 27). […] For quantitative analysis of fibrosis area, bright field images of Sirius red-stained section was blindly captured using a digital camera at 100-fold magnification, and the Sirius red-stained positive areas in 5 fields/4 um section/mouse were measured using ImageJ software (National Institute of Health, USA) and in accordance with the following expression: (collagen area/total area-vascular lumen area)×100. […] Results were expressed as mean±SD. Comparison of the Valsartan group and Vehicle group in fibrosis area was assessed with student's t-test to confirm whether Valsartan worked as a positive control.

Test [7] deals with C57BL6 mice, laser-induced choroidal burns. Kind of test: Mouse choroidal neovascularisation model. Format: in vivo. The following applies: topical 5 uL instillations tid days 0 to 12; day 12; FIG. 10. As to the method:
Example 1 was assessed in a mouse choroidal neovascularisation model. Pigmented mice (C57BL6 strain, n=15 per group) each were induced with 3 choroidal burns in the right eyes using a 532 nm photocoagulator. Example 1 and vehicle were dosed topically using 5 uL instillations tid from days 0 to 12. On day 12, lesion size was determined by isolectine B4 immunostaining on flatmount choroids from the treated eyes and confocal microscopy for determining the size of the lesion.

Where [8] appears, read: 100 mg/kg orally twice daily, rear right hind limbs, FIG. 2.

Molecules are shown by their SMILES.

For `CC(C)[C@H]1c2[nH]cnc2CCN1C(=O)OCc1ccc(OCCCN(C)C)cc1` [Example 1, {4-[3-(Dimethylamino)propoxy]phenyl}methyl (4S)-4-(propan-2-yl)-3H,4H,5H,6H,7H-imidazo[4,5-c]pyridine-5-carboxylate], in test [1], the B cells result is “significant reduction”, the T cells result is recorded as “significant reduction”, the TGFβ entry is on record as “significant reduction” and the cytokines entry is reported as “significant reduction”. Also, in test [1], the macrophages result is reported as “significant reduction” and the pro-inflammatory monocytes result is recorded as “significant reduction”. In test [2] (100 mg/kg orally twice daily, after two weeks of therapy, FIG. 1), the “reduction in disease severity (Arthritic Index)” value is 46%. Also, in test [2] (setting [8]), the “inhibition of bone resorption (joint histology)” value is given as 84%, the “inhibition of cartilage damage (joint histology)” value came to 60%, the “inhibition of inflammation (joint histology)” value is 60% and the “inhibition of pannus formation (joint histology)” value is 84%. The “rate of disease development (Arthritic Index)” value in test [2] (10, 50 and 100 mg/kg orally twice daily from day 30 post-inoculation, FIG. 1) is “dose-dependent decrease in the rate of disease development”. In addition, in test [3], the “disease severity (EAE score)” value is “decrease in disease severity”, the “time to disease relapse” value is “increased time to disease relapse” and the “time to disease remission” value is on record as “dose-dependent decrease in the time to disease remission”. Moreover, in test [4], the “serum TNFα levels relative to vehicle control” value is on record as “statistically significant dose-dependent decrease”. Further, the “magnitude of the effect relative to positive control 6-Thioguanine (0.5 mg/kg)” value in test [5] (100 mg/kg orally b.i.d.) is “comparable to the effect seen with the positive control”. Besides, the overall body weight result in test [5] (100 mg/kg orally b.i.d., FIG. 3) is on record as “statistically significant effects”. Moreover, the “endoscopy scores on day 12” value in test [5] (100 mg/kg orally b.i.d., FIG. 4) is “statistically significant effects”. In addition, the colon weight result in test [5] (100 mg/kg orally b.i.d., FIG. 5) is reported as “statistically significant effects”. Besides, in test [5] (100 mg/kg orally b.i.d., FIG. 6), the diarrhea result is recorded as “statistically significant effects”. Further, the “overall effect in the DSS colitis model” value in test [5] (10, 30 or 100 mg/kg orally b.i.d., Days 6 to 19) is given as “dose-dependent improvement”. Besides, in test [6], the “deposition of collagen in the liver (Sirius red staining)” value is “significantly reduced”. Further, the “lesion size versus vehicle” value in test [7] was “significant reduction”.
